Reference: ChEMBL document CHEMBL1201862, “PubChem BioAssay data set” (2004)
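Interpolation was linear, between the two tested concentrations surrounding the appropriate level; five concentrations were tested over 48 hours in 96-well plates. GI50 marks 50% less growth.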 The source made the active and inactive calls. Cut-off read from the data, not from the text of the source: active = GI50 up to about 1.1 µM and inactive = higher.

How the values were obtained:
Test in all cases: growth of human tumour cells (NCI), 48 h
LOX IMVI = system: LOX IMVI
NCI-H226 = system: NCI-H226
MDA-MB-231 = system: MDA-MB-231
786-0 = system: 786-0
SK-MEL-2 = system: SK-MEL-2
NCI-H460 = system: NCI-H460
HT-29 = system: HT-29
PC-3 = system: PC-3
HCC 2998 = system: HCC 2998
BT-549 = system: BT-549
SK-MEL-5 = system: SK-MEL-5
NCI-H23 = system: NCI-H23
KM12 = system: KM12
NCI/ADR-RES = system: NCI/ADR-RES
SF-539 = system: SF-539
SNB-75 = system: SNB-75
EKVX = system: EKVX
SN12C = system: SN12C
MDA-MB-435 = system: MDA-MB-435
M14 = system: M14

CC[P+](c1ccccc1)(N(C)C)N(C)C
GI50 (LOX IMVI): > 100 µM (inactive) | GI50 (NCI-H226): 59.8 µM (inactive) | GI50 (MDA-MB-231): > 100 µM (inactive) | GI50 (786-0): > 100 µM (inactive) | GI50 (SK-MEL-2): > 100 µM (inactive) | GI50 (NCI-H460): > 100 µM (inactive) | GI50 (HT-29): > 100 µM (inactive) | GI50 (PC-3): 60.5 µM (inactive) | GI50 (HCC 2998): > 100 µM (inactive) | GI50 (BT-549): > 100 µM (inactive) | GI50 (SK-MEL-5): 54.5 µM (inactive) | GI50 (NCI-H23): > 100 µM (inactive) | GI50 (KM12): > 100 µM (inactive) | GI50 (NCI/ADR-RES): > 100 µM (inactive) | GI50 (SF-539): > 100 µM (inactive) | GI50 (SNB-75): > 100 µM (inactive) | GI50 (EKVX): > 100 µM (inactive) | GI50 (SN12C): > 100 µM (inactive) | GI50 (MDA-MB-435): > 100 µM (inactive) | GI50 (M14): > 100 µM (inactive)

COc1c(O)c2ccccc2c2cc(O)ccc12
GI50 (LOX IMVI): 2 µM (inactive) | GI50 (NCI-H226): 13.6 µM (inactive) | GI50 (MDA-MB-231): 3.91 µM (inactive) | GI50 (786-0): 12.2 µM (inactive) | GI50 (SK-MEL-2): 4.79 µM (inactive) | GI50 (NCI-H460): 7.69 µM (inactive) | GI50 (HT-29): 21 µM (inactive) | GI50 (PC-3): 16.6 µM (inactive) | GI50 (HCC 2998): 17.3 µM (inactive) | GI50 (BT-549): 2.43 µM (inactive) | GI50 (SK-MEL-5): 2.17 µM (inactive) | GI50 (NCI-H23): 2.86 µM (inactive) | GI50 (KM12): 11.6 µM (inactive) | GI50 (NCI/ADR-RES): 6.98 µM (inactive) | GI50 (SF-539): 3.69 µM (inactive) | GI50 (SNB-75): 8.17 µM (inactive) | GI50 (EKVX): 18.1 µM (inactive) | GI50 (SN12C): 5.2 µM (inactive) | GI50 (MDA-MB-435): 1 µM (active) | GI50 (M14): 3.64 µM (inactive)

COc1ccc(/N=C(C)/C(C)=N/c2ccc(OC)cc2)cc1
GI50 (LOX IMVI): 5.02 µM (inactive) | GI50 (NCI-H226): > 100 µM (inactive) | GI50 (MDA-MB-231): > 100 µM (inactive) | GI50 (786-0): > 100 µM (inactive) | GI50 (SK-MEL-2): > 100 µM (inactive) | GI50 (NCI-H460): 20.3 µM (inactive) | GI50 (HT-29): 48.6 µM (inactive) | GI50 (PC-3): 40.7 µM (inactive) | GI50 (HCC 2998): 20.2 µM (inactive) | GI50 (BT-549): 3.78 µM (inactive) | GI50 (SK-MEL-5): 64 µM (inactive) | GI50 (NCI-H23): 73.6 µM (inactive) | GI50 (KM12): 6.85 µM (inactive) | GI50 (NCI/ADR-RES): 62.8 µM (inactive) | GI50 (SF-539): 30.8 µM (inactive) | GI50 (SNB-75): > 100 µM (inactive) | GI50 (EKVX): > 100 µM (inactive) | GI50 (SN12C): > 100 µM (inactive) | GI50 (MDA-MB-435): 8.95 µM (inactive) | GI50 (M14): 9.91 µM (inactive)

O=C(N/N=C/c1c(-c2ccccc2)no[n+]1[O-])N1CCOCC1
GI50 (LOX IMVI): > 100 µM (inactive) | GI50 (NCI-H226): > 100 µM (inactive) | GI50 (MDA-MB-231): > 100 µM (inactive) | GI50 (786-0): > 100 µM (inactive) | GI50 (SK-MEL-2): > 100 µM (inactive) | GI50 (NCI-H460): > 100 µM (inactive) | GI50 (HT-29): > 100 µM (inactive) | GI50 (PC-3): > 100 µM (inactive) | GI50 (HCC 2998): > 100 µM (inactive) | GI50 (BT-549): > 100 µM (inactive) | GI50 (SK-MEL-5): > 100 µM (inactive) | GI50 (NCI-H23): > 100 µM (inactive) | GI50 (KM12): > 100 µM (inactive) | GI50 (NCI/ADR-RES): > 100 µM (inactive) | GI50 (SF-539): > 100 µM (inactive) | GI50 (SNB-75): > 100 µM (inactive) | GI50 (EKVX): > 100 µM (inactive) | GI50 (SN12C): > 100 µM (inactive) | GI50 (MDA-MB-435): > 100 µM (inactive) | GI50 (M14): > 100 µM (inactive)

Clc1ncnc2c1nc(C#Cc1ccccc1)n2C1CCCCO1 (stereo not given)
GI50 (LOX IMVI): 2.02 µM (inactive) | GI50 (NCI-H226): 2.49 µM (inactive) | GI50 (MDA-MB-231): 3.95 µM (inactive) | GI50 (786-0): 1.42 µM (inactive) | GI50 (SK-MEL-2): 2.47 µM (inactive) | GI50 (NCI-H460): 3.14 µM (inactive) | GI50 (HT-29): 1.91 µM (inactive) | GI50 (PC-3): 3.27 µM (inactive) | GI50 (HCC 2998): 2.1 µM (inactive) | GI50 (BT-549): 1.9 µM (inactive) | GI50 (SK-MEL-5): 2.21 µM (inactive) | GI50 (NCI-H23): 1.99 µM (inactive) | GI50 (KM12): 1.63 µM (inactive) | GI50 (NCI/ADR-RES): 2.75 µM (inactive) | GI50 (SF-539): 1.91 µM (inactive) | GI50 (SNB-75): 2.6 µM (inactive) | GI50 (EKVX): 1.95 µM (inactive) | GI50 (SN12C): 1.78 µM (inactive) | GI50 (MDA-MB-435): 2.35 µM (inactive) | GI50 (M14): 2.14 µM (inactive)

COC(=O)c1ccccc1C1CN=NC12Cc1c(C)ccc(C)c1C2=O (stereo not given)
GI50 (LOX IMVI): > 100 µM (inactive) | GI50 (NCI-H226): > 100 µM (inactive) | GI50 (MDA-MB-231): > 100 µM (inactive) | GI50 (786-0): > 100 µM (inactive) | GI50 (SK-MEL-2): > 100 µM (inactive) | GI50 (NCI-H460): > 100 µM (inactive) | GI50 (HT-29): > 100 µM (inactive) | GI50 (PC-3): > 100 µM (inactive) | GI50 (HCC 2998): > 100 µM (inactive) | GI50 (BT-549): > 100 µM (inactive) | GI50 (SK-MEL-5): > 100 µM (inactive) | GI50 (NCI-H23): > 100 µM (inactive) | GI50 (KM12): > 100 µM (inactive) | GI50 (NCI/ADR-RES): > 100 µM (inactive) | GI50 (SF-539): > 100 µM (inactive) | GI50 (SNB-75): > 100 µM (inactive) | GI50 (EKVX): > 100 µM (inactive) | GI50 (SN12C): > 100 µM (inactive) | GI50 (MDA-MB-435): > 100 µM (inactive) | GI50 (M14): > 100 µM (inactive)

Cn1c2ccccc2c(=O)c2c(O)cc3c(c21)C=CC1(CCCC1)O3
GI50 (LOX IMVI): > 100 µM (inactive) | GI50 (NCI-H226): > 100 µM (inactive) | GI50 (MDA-MB-231): > 100 µM (inactive) | GI50 (786-0): 76.4 µM (inactive) | GI50 (SK-MEL-2): > 100 µM (inactive) | GI50 (NCI-H460): > 100 µM (inactive) | GI50 (HT-29): 2.67 µM (inactive) | GI50 (PC-3): > 100 µM (inactive) | GI50 (HCC 2998): > 100 µM (inactive) | GI50 (BT-549): > 100 µM (inactive) | GI50 (SK-MEL-5): > 100 µM (inactive) | GI50 (NCI-H23): 68.1 µM (inactive) | GI50 (KM12): > 100 µM (inactive) | GI50 (NCI/ADR-RES): > 100 µM (inactive) | GI50 (SF-539): 50.5 µM (inactive) | GI50 (SNB-75): > 100 µM (inactive) | GI50 (EKVX): 20.8 µM (inactive) | GI50 (SN12C): > 100 µM (inactive) | GI50 (MDA-MB-435): > 100 µM (inactive) | GI50 (M14): > 100 µM (inactive)

COc1cc2c(c(OC)c1OC)C(=O)c1c(O)cc(C)c(OC)c1C2=O
GI50 (LOX IMVI): 86.3 µM (inactive) | GI50 (NCI-H226): > 100 µM (inactive) | GI50 (MDA-MB-231): 55 µM (inactive) | GI50 (786-0): 78.3 µM (inactive) | GI50 (SK-MEL-2): 88.1 µM (inactive) | GI50 (NCI-H460): 63.1 µM (inactive) | GI50 (HT-29): > 100 µM (inactive) | GI50 (PC-3): > 100 µM (inactive) | GI50 (HCC 2998): > 100 µM (inactive) | GI50 (BT-549): > 100 µM (inactive) | GI50 (SK-MEL-5): 39.4 µM (inactive) | GI50 (NCI-H23): > 100 µM (inactive) | GI50 (KM12): > 100 µM (inactive) | GI50 (NCI/ADR-RES): 57.1 µM (inactive) | GI50 (SF-539): 75.5 µM (inactive) | GI50 (SNB-75): > 100 µM (inactive) | GI50 (EKVX): 65 µM (inactive) | GI50 (SN12C): > 100 µM (inactive) | GI50 (MDA-MB-435): 91.8 µM (inactive) | GI50 (M14): > 100 µM (inactive)

CSC(=S)Nc1cc(C)cc(C)n1
GI50 (LOX IMVI): > 31.6 µM (inactive) | GI50 (NCI-H226): > 31.6 µM (inactive) | GI50 (MDA-MB-231): > 100 µM (inactive) | GI50 (786-0): 22.4 µM (inactive) | GI50 (SK-MEL-2): > 31.6 µM (inactive) | GI50 (NCI-H460): > 31.6 µM (inactive) | GI50 (HT-29): > 31.6 µM (inactive) | GI50 (PC-3): > 31.6 µM (inactive) | GI50 (HCC 2998): > 31.6 µM (inactive) | GI50 (BT-549): > 100 µM (inactive) | GI50 (SK-MEL-5): > 66.4 µM (inactive) | GI50 (NCI-H23): > 31.6 µM (inactive) | GI50 (KM12): > 31.6 µM (inactive) | GI50 (NCI/ADR-RES): > 31.6 µM (inactive) | GI50 (SF-539): > 100 µM (inactive) | GI50 (SNB-75): > 10 µM (inactive) | GI50 (EKVX): > 31.6 µM (inactive) | GI50 (SN12C): > 31.6 µM (inactive) | GI50 (MDA-MB-435): > 31.6 µM (inactive) | GI50 (M14): > 31.6 µM (inactive)

Cc1cc(=O)n2c3c(c4c(cc13)c(CN(C)C)cc(=O)n4C)OC2
GI50 (LOX IMVI): 13.2 µM (inactive) | GI50 (NCI-H226): 9.04 µM (inactive) | GI50 (MDA-MB-231): 33.3 µM (inactive) | GI50 (786-0): 15.9 µM (inactive) | GI50 (SK-MEL-2): 20.3 µM (inactive) | GI50 (NCI-H460): 4.46 µM (inactive) | GI50 (HT-29): 8.13 µM (inactive) | GI50 (PC-3): 19.9 µM (inactive) | GI50 (HCC 2998): 6.93 µM (inactive) | GI50 (BT-549): 22 µM (inactive) | GI50 (SK-MEL-5): 12.2 µM (inactive) | GI50 (NCI-H23): 14 µM (inactive) | GI50 (KM12): 14.7 µM (inactive) | GI50 (NCI/ADR-RES): 15 µM (inactive) | GI50 (SF-539): 7.18 µM (inactive) | GI50 (SNB-75): 14.7 µM (inactive) | GI50 (EKVX): 20.6 µM (inactive) | GI50 (SN12C): 20.3 µM (inactive) | GI50 (MDA-MB-435): 20.9 µM (inactive) | GI50 (M14): 15.6 µM (inactive)
